ChEMBL document CHEMBL1201862, “PubChem BioAssay data set” (2004)
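The compound was tested at five concentrations on cells cultured in 96-well plates, with a 48-hour exposure period. Abbreviation: GI50, concentration required for 50% inhibition of growth.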 Calls of active or inactive are those of the source. Rule as the data show it: active = GI50 up to about 1.1 µM and inactive = higher.

Key:
Assay in all cases: NCI anticancer screen, dose series, 48 h
LXFL 529 = system: LXFL 529
XF498 = system: XF498
M19-MEL = system: M19-MEL
SNB-78 = system: SNB-78
KM-20L2 = system: KM-20L2
RXF 631 = system: RXF 631
NCI/ADR-RES = system: NCI/ADR-RES
MDA-N = system: MDA-N
T47D = system: T47D

Row | SMILES | GI50 (LXFL 529) | GI50 (XF498) | GI50 (M19-MEL) | GI50 (SNB-78) | GI50 (KM-20L2) | GI50 (RXF 631) | GI50 (NCI/ADR-RES) | GI50 (MDA-N) | GI50 (T47D)
1 | CC1(C)CCC[C@@]2(C)C1CCC1(C)C(CCc3ccoc3)/C(=C/OS(=O)(=O)O)CCC12 (stereo partly drawn) | 50 µM (inactive) | > 100 µM (inactive) | > 100 µM (inactive) | 45.2 µM (inactive) | 38.2 µM (inactive) | > 100 µM (inactive) | – | – | –
2 | O=C1C(Br)=C[C@H]2C3C=CC(Br)(C3=O)[C@@H]12 (stereo partly drawn) | 10.2 µM (inactive) | 17.5 µM (inactive) | 11.8 µM (inactive) | 94.8 µM (inactive) | 4.84 µM (inactive) | 14.4 µM (inactive) | – | – | –
3 | CCOC(=O)Nc1nc2cc(Cn3cccc3)ccc2[nH]1 | 4.16 µM (inactive) | 3.5 µM (inactive) | 6.37 µM (inactive) | 8.99 µM (inactive) | 3.25 µM (inactive) | > 22.3 µM (inactive) | 0.387 µM (active) | 0.157 µM (active) | –
4 | COc1ccc2c(c1)C=C(C(C)(C)C)NS2(=O)=O | > 100 µM (inactive) | – | > 100 µM (inactive) | > 100 µM (inactive) | > 100 µM (inactive) | > 100 µM (inactive) | – | – | –
5 | CCN(CC)C(=O)COc1ccc(Br)cc1Br | > 100 µM (inactive) | – | > 100 µM (inactive) | > 100 µM (inactive) | > 100 µM (inactive) | > 100 µM (inactive) | – | – | –
6 | N#CCc1ccc(C(C#N)/C(CCCC(=O)Nc2cccc([N+](=O)[O-])c2)=N/NC(N)=S)cc1 (stereo not drawn) | 92 µM (inactive) | – | – | 57.7 µM (inactive) | > 100 µM (inactive) | 86.5 µM (inactive) | – | – | –
7 | O=C(N/C(=C\c1ccccc1O)c1nc2ccccc2[nH]1)c1ccccc1 | 51.2 µM (inactive) | > 100 µM (inactive) | > 100 µM (inactive) | 43.5 µM (inactive) | > 100 µM (inactive) | – | – | – | –
8 | CCCn1c(SCC)c2cc3cc4ccccc4cc3cc2c1-c1nc(F)nc(F)n1 | > 100 µM (inactive) | > 100 µM (inactive) | > 100 µM (inactive) | > 100 µM (inactive) | > 100 µM (inactive) | > 100 µM (inactive) | – | – | –
9 | C=C(CN(C)C)C(=O)c1ccc(Oc2ccccc2)cc1 | 2.2 µM (inactive) | 14.8 µM (inactive) | 4.25 µM (inactive) | 16.3 µM (inactive) | 12.2 µM (inactive) | 19.3 µM (inactive) | 6.75 µM (inactive) | 3.02 µM (inactive) | 2.7 µM (inactive)
10 | Cc1ccc(S(=O)(=O)SCc2ccccc2CSS(=O)(=O)c2ccc(C)cc2)cc1 | 15.5 µM (inactive) | 24.2 µM (inactive) | 23.5 µM (inactive) | 20.1 µM (inactive) | 78.3 µM (inactive) | > 100 µM (inactive) | – | – | –
11 | CCCCN(CCCC)CC(C(C)=O)C(c1ccccc1)c1c(O)c2ccccc2oc1=O (stereo not drawn) | > 100 µM (inactive) | > 100 µM (inactive) | > 100 µM (inactive) | > 100 µM (inactive) | > 100 µM (inactive) | > 100 µM (inactive) | – | – | –
12 | CS/C(=N/C#N)NCCc1c[nH]c2ccccc12 | > 100 µM (inactive) | 34.8 µM (inactive) | > 100 µM (inactive) | > 100 µM (inactive) | 44.9 µM (inactive) | – | – | – | –
13 | CC(=O)c1cccc(N2COC(C)(C)c3nc4ccccc4n3C2)c1 | > 100 µM (inactive) | > 100 µM (inactive) | > 100 µM (inactive) | > 100 µM (inactive) | > 100 µM (inactive) | – | – | – | –
14 | CC1(C)COC(c2cccc3c2C(=O)c2cccc(Cl)c2-3)=N1 | 37.7 µM (inactive) | 46.7 µM (inactive) | – | 97.1 µM (inactive) | 39.9 µM (inactive) | 74.3 µM (inactive) | – | – | –
15 | CCOC(=O)C1=NC(c2ccccc2)(c2ccccc2)OC1=C(Cl)Cl | 65.5 µM (inactive) | – | 29 µM (inactive) | 96.4 µM (inactive) | 49.3 µM (inactive) | 50.9 µM (inactive) | – | – | –
16 | CCCc1c(C(=O)OCC)[nH]c(C(=O)CCC(=O)c2[nH]c(C(=O)OCC)c(CCC)c2C(=O)OCC)c1C(=O)OCC | > 100 µM (inactive) | 54.3 µM (inactive) | > 100 µM (inactive) | > 100 µM (inactive) | > 100 µM (inactive) | – | – | – | –
17 | CC(C)(c1ccc(C=O)o1)c1ccc(C(C)(C)c2ccc(C=O)o2)o1 | > 100 µM (inactive) | – | – | > 100 µM (inactive) | > 100 µM (inactive) | > 100 µM (inactive) | – | – | –
18 | CN(C)c1ccc(-c2nc(N)nc3c2CCCC3)cc1 | 63.8 µM (inactive) | 19.4 µM (inactive) | 45 µM (inactive) | 64.7 µM (inactive) | 57.8 µM (inactive) | – | – | – | –
19 | O=C(CC(CC(=O)Oc1c(Br)cc(Br)cc1C(=O)O)C(=O)Oc1c(Br)cc(Br)cc1C(=O)O)Oc1c(Br)cc(Br)cc1C(=O)O | 58.6 µM (inactive) | 0.504 µM (active) | > 100 µM (inactive) | 49.2 µM (inactive) | 56.6 µM (inactive) | – | – | – | –
20 | O=C(Cc1ccccc1)NN1C(=O)C(Cl)C1c1ccccc1Cl (stereo not drawn) | 33.6 µM (inactive) | > 75 µM (inactive) | > 100 µM (inactive) | 83.6 µM (inactive) | 98.6 µM (inactive) | – | – | – | –
21 | COc1cccc(NC(=O)C(=O)C(C(C)=O)c2nc3ccc(Cl)cc3nc2O)c1 (stereo not drawn) | > 100 µM (inactive) | – | > 100 µM (inactive) | > 100 µM (inactive) | > 100 µM (inactive) | > 100 µM (inactive) | – | – | –
22 | O=S(O)CCCSSc1ccccc1 | 32.5 µM (inactive) | 98.9 µM (inactive) | 39.4 µM (inactive) | 32.7 µM (inactive) | 51.1 µM (inactive) | – | – | – | –
23 | N=C(N)SCc1cccc2c(=O)cc(-c3ccccc3)oc12 | – | 5.87 µM (inactive) | 13.2 µM (inactive) | 6.32 µM (inactive) | 6.24 µM (inactive) | 9.95 µM (inactive) | 22 µM (inactive) | 6.53 µM (inactive) | 3.75 µM (inactive)
